Counter-ions that a name gives are not always drawn.
Assays:
mice of Std-ddY strain = experiment: Assay on defecation in mice; format: in vivo; design: key: −: Inactive; +: Moderately stimulated (P < 0.05); ++: Markedly stimulated (p < 0.01); conditions: fecal pellet weight vs control, Dunnett's test
Procedure: Male mice of Std-ddY strain weighing 25-30 g were used. Free access to food and water was allowed up to the beginning of the procedure. The mice (each group: five mice) were placed in a mesh bottom cage for fasting, and they were allowed for acclimation to the new environment for about one hour prior to the start of the experiment. A test compound, which was previously suspended in a 0.5% tragacanth solution, was administered orally to the mice. The fecal pellets were collected at 30, 60 and 120 minutes after the treatment of a test compound, and weighed. The statistical judgment of efficacy was carried out between the control group (treated with a 0.5% tragacanth solution) and the test compound-treated group, and determined by Dunnett's test.

[1] = system: guinea pigs of Std-Hartley strain; experiment: Effect on electrocardiogram in guinea pigs (QTc); format: in vivo, guinea pig; conditions: anesthetized guinea pigs, iv infusion for 15 minutes, maximum dose 30 mg/kg
Procedure: Male guinea pigs of Std-Hartley strain weighing 350-500 g were anesthetized with urethan (1.5 g/kg, ip). […] RR (second): time from the peak of R-wave to the peak of the next R-wave in electrocardiogram (usually, expressed by “second”). […] Consequently, as an index for evaluating the effects on the heart, a dose to be required to prolong the QTc intervals by 5% of the electrocardiogram (ED5%) in guinea pigs was measured, which has widely been used.

colon of Beagle dogs = experiment: Gastrointestinal motility activity in conscious dog; format: in vivo; conditions: within 2 hours after administration
Source text: Beagle dogs of a male were anesthetized with pentobarbital, and the abdominal cavity was opened, and force transducers (F-121S; manufactured by Star Medical Inc.) were sutured onto the seromuscular layer of the colon to make it possible to measure circular muscle contractions. Three or four force transducer were sutured onto in the colon from the lower part to the upper part at regular intervals. The lead wires from the transducers were brought out outside the body through a skin incision made between the scapulae, and were protected in a package of a jacket protector. The gastrointestinal motility activity was measured 2 or 3 weeks after the operation. The lead wires from the force transducers were connected with a telemeter system (DAS-800T: manufactured by Star Medical Inc.), and the gastrointestinal motility activity was analyzed by a personal computer system being connected therewith and recorded. A test compound was suspended in a 0.5% tragacanth solution, and administered via a cannula to be placed in the stomach to the dogs, which were one hour or more after feeding. The measurement was continued for 2 hours after the administration of test compounds.
The number of dogs showing Giant Migrating Contraction (GMC) and defecation within 2 hours after the administration of a test compound is indicated in Table 4.

Dopamine D2 receptor = target: T1, Dopamine D2 receptor (Rattus norvegicus, UniProt P61169); experiment: Dopamine D2 receptor binding assay ([3H]spiperone); conditions: rat brain crude synaptosome membrane fractions
T1 construct: Crude synaptosome membrane fractions from rat brain was used as a receptor membrane fraction; from tissue; host or cells: rat brain crude synaptosome membrane fraction
T1 sequence (P61169 whole entry): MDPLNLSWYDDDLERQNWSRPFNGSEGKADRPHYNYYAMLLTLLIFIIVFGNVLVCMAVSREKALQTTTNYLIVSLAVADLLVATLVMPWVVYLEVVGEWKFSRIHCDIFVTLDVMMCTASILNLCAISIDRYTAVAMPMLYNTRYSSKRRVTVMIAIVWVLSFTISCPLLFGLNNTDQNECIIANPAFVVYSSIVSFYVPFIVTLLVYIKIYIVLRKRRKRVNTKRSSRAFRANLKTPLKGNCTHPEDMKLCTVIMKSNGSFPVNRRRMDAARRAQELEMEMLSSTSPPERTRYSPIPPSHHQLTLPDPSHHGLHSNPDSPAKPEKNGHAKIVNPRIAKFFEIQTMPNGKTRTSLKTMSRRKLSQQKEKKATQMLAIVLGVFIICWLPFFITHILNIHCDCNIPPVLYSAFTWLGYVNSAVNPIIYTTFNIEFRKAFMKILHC
Procedure: Dopamine D2 receptor binding assay and the preparation of receptor membrane fractions therefor were carried out according to a modified method of the method of Creese, I. et al., Eur. J. Pharmacol., 46, 337 (1977) and Peroutka, S. J. and Hamik, A., Eur. J. Pharmacol., 148, 297 (1988).
Crude synaptosome membrane fractions from rat brain was used as a receptor membrane fraction, and [^3H]spiperone (D2) was used as a labeled ligand. A buffer (final volume: 1 ml) containing a receptor membrane fraction and a labelled ligand therefor was incubated for a prescribed period in the presence of a test compound in various concentrations, and the radioactive ligand binding to the receptor was separated on the filter paper using a cell harvester (manufactured by Brandel). The radioactivity on the filter was determined by a liquid scintillation counter, and the total binding of the ligand to the receptor was determined. On the other hand, the non-specific binding was determined in the presence of an excess amount of non-labeled ligand (spiperone (D2)), and the specific binding was obtained by subtracting the non-specific binding from the total binding.

Acute toxicity = conditions: male, Std-ddY, mouse, in vivo; mice, intravenous, observed for 7 days
Source text: Male mice of Std-ddY strain weighing 25-30 g were used in a group of 5 or more animals. A test compound was suspended in physiological saline solution or a 1% lactose solution and administered intravenously to the mice.

[2] = target: T2, Serotonin 4 (5-HT4) receptor (Cavia porcellus, UniProt O70528); experiment: Serotonin 4 (5-HT4) receptor binding assay ([3H]-GR113808); conditions: guinea pig striatum membrane fractions, 0.1 nM [3H]-GR113808
T2 construct: from tissue; host or cells: guinea pig (Std-Hartley) brain striatum membrane fraction
T2 sequence (O70528 whole entry): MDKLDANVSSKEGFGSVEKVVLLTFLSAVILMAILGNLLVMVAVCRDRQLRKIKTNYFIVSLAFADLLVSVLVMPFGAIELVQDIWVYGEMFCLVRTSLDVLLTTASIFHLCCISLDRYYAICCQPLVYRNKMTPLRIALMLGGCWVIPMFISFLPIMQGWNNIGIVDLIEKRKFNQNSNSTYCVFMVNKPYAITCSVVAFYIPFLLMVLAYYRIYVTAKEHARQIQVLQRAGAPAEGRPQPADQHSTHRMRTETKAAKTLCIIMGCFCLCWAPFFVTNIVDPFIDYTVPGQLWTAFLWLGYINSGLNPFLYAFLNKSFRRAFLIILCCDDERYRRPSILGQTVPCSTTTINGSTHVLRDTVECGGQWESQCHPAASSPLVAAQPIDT
Source text: Std-Hartley guinea pigs weighing 300-400 g were decapitated, and the brain thereof was immediately taken out, and the striatum was dissected.
Prior to the filtration, the filter to be used was presoaked in a 0.1% solution of polyethylenimine for one hour.

Row | SMILES | Effect (defecation in mice) (mice of Std-ddY strain; 1.0 mg/kg oral) | Effect (defecation in mice) (mice of Std-ddY strain; 3.0 mg/kg oral) | ED5%, iv (dose required to prolong the QTc intervals by 5%) [1] | other results
1 | COc1cc(N)c(Cl)cc1C(=O)NC1CCN(CC2CCN(C(=O)c3ccco3)CC2)CC1 [Compound B, 4-amino-5-chloro-N-[1-[1-(2-furoyl)-4-piperidinyl-methyl]-4-piperidinyl]-2-methoxybenzamide.fumarate.1/2 hydrate] | + | + | 3.2 mg/kg | Effect (defecation in mice) (mice of Std-ddY strain; 10 mg/kg oral): ++
2 | COc1cc(N)c(Cl)cc1C(=O)NC1CCN(CC2CCN(C(=O)C3CCOCC3)CC2)CC1 (as salt: fumarate) (hydrate or solvate) [Compound A, 4-amino-5-chloro-2-methoxy-N-[1-[1-(4-tetrahydropyranylcarbonyl)-4-piperidinylmethyl]-4-piperidinyl]benzamide.fumarate.1/4 hydrate] |  |  |  | melting point: 235 to 237 °C
3 | COc1cc(N)c(Cl)cc1C(=O)N[C@H]1CCN(CCCOc2ccc(F)cc2)C[C@H]1OC (relative stereo) [Cisapride, cis-4-amino-5-chloro-N-[1-[3-(4-fluorophenoxy)propyl]-3-methoxy-4-piperidinyl]-2-methoxybenzamide] |  | − | 0.3 mg/kg | Number of dogs which showed defecation/total number of dogs to be tested (colon of Beagle dogs; 10 mg/kg intragastric): 1/7; Number to dogs which showed GMC/total number of dogs to be tested (colon of Beagle dogs; 10 mg/kg intragastric): 1/7; Effect (defecation in mice) (mice of Std-ddY strain; 30 mg/kg oral): −
4 | COc1cc(N)c(Cl)cc1C(=O)NC1CCN(CC2CCN(C(=O)[C@H]3CCCO3)CC2)CC1 [Compound R, (R)-4-amino-5-chloro-2-methoxy-N-[1-[1-(2-tetrahydrofurylcarbonyl)-4-piperidinyl-methyl]-4-piperidinyl]benzamide.fumarate] | ++ | ++ | 17.4 mg/kg | IC50 (Dopamine D2 receptor): 948 nM
5 | COc1cc(N)c(Cl)cc1C(=O)NC1CCN(CC2CCN(C(=O)C3CCOC3)CC2)CC1.O=C(O)/C=C/C(=O)O (stereo not shown) [Compound C, 4-amino-5-chloro-2-methoxy-N-[1-[1-(3-tetrahydrofurylcarbonyl)-4-piperidinyl-methyl]-4-piperidinyl]benzamide.fumarate] | + | ++ | 9.4 mg/kg | 
6 | COc1cc(N)c(Cl)cc1C(=O)NC1CCN(CC2CCN(C(=O)C3CCOCC3)CC2)CC1 [Compound A, 4-amino-5-chloro-2-methoxy-N-[1-[1-(4-tetrahydropyranylcarbonyl)-4-piperidinylmethyl]-4-piperidinyl]benzamide.fumarate.1/4 hydrate] | − | − | 16.9 mg/kg | Effect (defecation in mice) (mice of Std-ddY strain; 10 mg/kg oral): ++
7 | COc1cc(N)c(Cl)cc1C(=O)NC1CCN(CC2CCN(C(=O)c3ccco3)CC2)CC1 (as salt: fumarate) (hydrate or solvate) [Compound B, 4-amino-5-chloro-N-[1-[1-(2-furoyl)-4-piperidinyl-methyl]-4-piperidinyl]-2-methoxybenzamide.fumarate.1/2 hydrate] |  |  |  | melting point: 179 to 181 °C
8 | COc1cc(N)c(Cl)cc1C(=O)NC1CCN(CC2CCN(C(=O)[C@@H]3CCCO3)CC2)CC1 [Compound 2, (S)-4-amino-5-chloro-2-methoxy-N-[1-[1-(2-tetrahydrofurylcarbonyl)-4-piperidinylmethyl]-4-piperidinyl]benzamide.fumarate] | ++ | ++ | 24.9 mg/kg | Number of dogs which showed defecation/total number of dogs to be tested (colon of Beagle dogs; 0.03 mg/kg intragastric): 1/4; Number to dogs which showed GMC/total number of dogs to be tested (colon of Beagle dogs; 0.03 mg/kg intragastric): 1/4; Number of dogs which showed defecation/total number of dogs to be tested (colon of Beagle dogs; 0.1 mg/kg intragastric): 2/5; Number to dogs which showed GMC/total number of dogs to be tested (colon of Beagle dogs; 0.1 mg/kg intragastric): 3/5; Number of dogs which showed defecation/total number of dogs to be tested (colon of Beagle dogs; 0.3 mg/kg intragastric): 3/5; Number to dogs which showed GMC/total number of dogs to be tested (colon of Beagle dogs; 0.3 mg/kg intragastric): 4/5; LD50 at 7 days (Acute toxicity): > 200 mg/kg; IC50 (Dopamine D2 receptor): > 10000 nM; IC50 [2]: 13.5 nM

Reference: patent US6696468B2, “(S)-4-AMINO-5-CHLORO-2-METHOXY-N-[1-[1-(2-TETRAHYDROFURYL-CARBONYL)-4-[…]]-4-[…]]BENZAMIDE, PROCESS FOR THE PREPARATION THEREOF, PHARMACEUTICAL COMPOSITION CONTAINING THE SAME, AND INTERMEDIATE THEREFOR” (priority 2002, dated 2004)
